According to patent publication US12152035B2, “Androgen receptor binding molecule and use thereof” (Industrial Technology Research Institute, priority 2020, dated 2024):

How the values were obtained:
Format in all cases: cell-based
[1] = test system: VCaP cells; assay: Cytotoxicity assay (AlamarBlue, 72 hours); conditions: 72 hours treatment, concentration not given
Method: (§1) Compound stock solutions of 10 mM were prepared with 100% DMSO and shaken for 10-15 seconds. The compound stock solutions were centrifuged at 12000 rpm (13523 rcf.) for 5 minutes and record the turbidity or precipitation state with a photo snapshot. The compound stock solutions were resuspended by shaking for 10-15 seconds, and serially diluted with 100% DMSO solution to make the compound concentration to 1000 μM, then to 100, 10, and 1 μM, and then 10-fold diluted with medium to 100, 10, 1, 0.1 μM (final 10% DMSO/medium) to complete compound test sample preparation. Compound treatment was performed by adding 10 μL of compound test sample to cells in each well of a 96-well plate (final 1% DMSO/medium).
(§2) Cells (CWR22Rv1 cells or VCaP cells) were cultured in RPMI-1640 medium supplemented with 10% fetal bovine serum, 10,000 U/mL penicillin and 10,000 μg/mL streptomycin. Cells were cultured at 37° C. in a humidified 5% CO2 incubator.
(§3) Cells were seeded in a 96-well plate (1×10^4 cells/well). 10 μL of the above compound test sample was added to each well of the 96-well plate on next day. After 72 hours of compound treatment, 10 μL of AlamaBlue reagent was added to each of 96 wells and incubated for 4 hours. The fluorescence value at Ex/Em=560/590 nm was read with a microplate reader, and the cytotoxicity (%) was calculated.
(§4) According to the above method, the compounds prepared above were subjected to cytotoxicity test with CWR22RV1 cells and VCaP cells.

[2] = test system: CWR22RV1 cells; assay: Cytotoxicity assay (AlamarBlue, 72 hours); conditions: 72 hours treatment, concentration not given
Method: as §1, §2, §3, §4

[3] = test system: full-length androgen receptor; assay: Western blot: degradation of full-length androgen receptor in CWR22RV1 cells; conditions: overnight
Method: CWR22Rv1 cells were maintained in RPMI medium supplemented with 10% fetal bovine serum and 1% penicillin-streptomycin at 37° C. in a humidified environment with 5% CO2.
CWR22Rv1 (5×10^5 cells) were seeded in each well of a 6-well plate and incubated overnight. Before compound treatment, the medium in the wells was replaced with a new medium. Cells were treated with different concentrations of compound overnight. Subsequently, cells were harvested by adding cold PBS and scraping cells. Cells were lysed according to general procedures and Western blot assays were performed to assess the ability of compounds to degrade full-length androgen receptor or androgen receptor splice variant 7. The cells or cell lysates were kept on ice at all times.
The following reagents were used in this experiment. Phosphate buffered saline (PBS) (Hyclone, SH30028.02), fetal bovine serum (Hyclone, SH30084.23, Lot AC14563276), penicillin-streptomycin solution (Hyclone, SV30010), 0.5% Trypsin-EDTA (Gibco, 15400-054), CST Lysis Buffer (CST-9803), Halt™ Protease and Phosphatase Inhibitor (ThermoFisher, 78442), Coomassie (Bradford) Protein Assay (Coomassie (Bradford) protein assay) (ThermoFisher, 23200), androgen receptor antibody (Cell Siginaling, CST-5153S), GAPDH antibody (Cell Siginaling, CST-5174S), HRP-goat-anti-rabbit (Jackson Immuno Research, 111-035-003), skim milk, SuperSignal West Pico Maximum Sensitivity substrate (ThermoFisher, 34080).
The compound prepared above was analyzed for its ability to degrade full-length androgen receptor and androgen receptor splice variant 7 in CWR22RV1 cells by Western blotting according to the method shown in item B.3-2 above.

[4] = compound concentration 0.1 (unit not given)
[5] = compound concentration 1 (unit not given)
[6] = compound concentration 10 (unit not given)

Row | SMILES | Cytotoxicity, VCaP cells (cell viability %) [1] | Cytotoxicity, CWR22RV1 cells (cell viability %) [2] | Degradation ability for full-length androgen receptor (residual rate %) [3, 4] | Degradation ability for full-length androgen receptor (residual rate %) [3, 5] | Degradation ability for full-length androgen receptor (residual rate %) [3, 6]
1 | Cc1ncsc1-c1ccc(CNC(=O)[C@@H]2C[C@H](O)CN2C(=O)[C@@H](NC(=O)COCCCOc2ccc(C3CCN(C4=Nn5c(nnc5C(F)(F)F)CC4)CC3)cc2)C(C)(C)C)cc1 [Compound 20, (2S,4S)-1-((S)-3,3-dimethyl-2-(2-(3-(4-(1-(3-(trifluoromethyl)-7,8-dihydro-[1,2,4]triazolo[4,3-b]pyridazin-6-yl)piperidin-4-yl)phenoxy)propoxy)acetamido)butanoyl)-4-hydroxy-N-(4-(4-methylthiazol-5-yl)benzyl)pyrrolidine-2-carboxamide] | ++ (40-60% : ++) | +++ (<40% : +++) |  |  | 
2 | Cc1ncsc1-c1ccc(CNC(=O)[C@@H]2C[C@H](O)CN2C(=O)[C@@H](NC(=O)COCCCOCCNC(=O)COc2ccc(C3CCN(C4=Nn5c(nnc5C(F)(F)F)CC4)CC3)cc2)C(C)(C)C)cc1 [Compound 3, (2S,4S)-1-((S)-2-tert-butyl-4,14-dioxo-15-(4-(1-(3-(trifluoromethyl)-7,8-dihydro-[1,2,4]triazolo[4,3-b]pyridazin-6-yl)piperidin-4-yl)phenoxy)-6,10-dioxa-3,13-diazapentadecane)-4-hydroxy-N-(4-(4-methylthiazol-5-yl)benzyl)pyrrolidine-2-carboxamide] |  | ++ (40-60% : ++) |  |  | 
3 | Cc1ncsc1-c1ccc(CNC(=O)[C@@H]2C[C@H](O)CN2C(=O)[C@@H](NC(=O)CCC#Cc2ccc(COc3ccc(C4CCN(C5=Nn6c(nnc6C(F)(F)F)CC5)CC4)cc3)cc2)C(C)(C)C)cc1 [Compound 2, (2S,4S)-1-((S)-3,3-dimethyl-2-(5-(4-((4-(1-(3-(trifluoromethyl)-7,8-dihydro-[1,2,4]triazolo[4,3-b]pyridazin-6-yl)piperidin-4-yl)phenoxy)methyl)phenyl)pent-4-ynamido)butanoyl)-4-hydroxy-N-(4-(4-methylthiazol-5-yl)benzyl)pyrrolidine-2-carboxamide] |  | + (60-80% : +) |  |  | 
4 | Cc1cc([C@H](C(=O)N2C[C@H](O)C[C@H]2C(=O)N[C@@H](CC(=O)NCCOCCCCOc2ccc(C3CCN(C4=Nn5c(nnc5C(F)(F)F)CC4)CC3)cc2)c2ccc(-c3scnc3C)cc2)C(C)C)on1 [Compound 6, (2S,4R)-4-hydroxy-1-((R)-3-methyl-2-(3-methylisoxazol-5-yl)butanoyl)-N—((S)-1-(4-(4-methylthiazol-5-yl)phenyl)-3-oxo-3-(2-(4-(4-(1-(3-(trifluoromethyl)-7,8-dihydro-[1,2,4]triazolo[4,3-b]pyridazin-6-yl)piperidin-4-yl)phenoxy)butoxy)ethylamino)propyl)pyrrolidine-2-carboxamide] |  | − (<80% : −) |  |  | 
5 | Cc1ncsc1-c1ccc(CNC(=O)[C@@H]2C[C@H](O)CN2C(=O)[C@@H](NC(=O)COCCCCCCCOc2ccc(C3CCN(C4=Nn5c(nnc5C(F)(F)F)CC4)CC3)cc2)C(C)(C)C)cc1 [Compound 23, (2S,4S)-1-((S)-3,3-dimethyl-2-(2-((7-(4-(1-(3-(trifluoromethyl)-7,8-dihydro-[1,2,4]triazolo[4,3-b]pyridazin-6-yl)piperidin-4-yl)phenoxy)heptyl)oxy)acetamido)butanoyl)-4-hydroxy-N-(4-(4-methylthiazol-5-yl)benzyl)pyrrolidine-2-carboxamide] | +++ (<40% : +++) | +++ (<40% : +++) |  |  | 
6 | O=C1CCC(N2Cc3c(C#CCCCCOc4ccc(C5CCN(C6=Nn7c(nnc7C(F)(F)F)CC6)CC5)cc4)cccc3C2=O)C(=O)N1 (stereo not drawn) [Compound 31, 3-(1-oxo-4-(6-(4-(1-(3-(trifluoromethyl)-7,8-dihydro-[1,2,4]triazolo[4,3-b]pyridazin-6-yl)piperidin-4-yl)phenoxy)hex-1-ynyl)isoindolin-2-yl)piperidine-2,6-dione] | + (60-80% : +) | + (60-80% : +) |  |  | 
7 | Cc1ncsc1-c1ccc(CNC(=O)C2CC(O)CN2C(=O)C(NC(=O)CC2O[C@H](COc3ccc(C4CCN(C5=Nn6c(nnc6C(F)(F)F)CC5)CC4)cc3)[C@@H](O)[C@H]2O)C(C)(C)C)cc1 (stereo partly drawn) [Compound 29, 1-(2-(2-((3R,4S,5R)-3,4-dihydroxy-5-((4-(1-(3-(trifluoromethyl)-7,8-dihydro-[1,2,4]triazolo[4,3-b]pyridazin-6-yl)piperidin-4-yl)phenoxy)methyl)tetrahydrofuran-2-yl)acetamido)-3,3-dimethylbutanoyl)-4-hydroxy-N-(4-(4-methylthiazol-5-yl)benzyl)pyrrolidine-2-carboxamide] |  | − (<80% : −) | + (60-80%: +) | − (>80%; −) | − (>80%; −)
8 | Cc1ncsc1-c1ccc(CNC(=O)[C@@H]2C[C@H](O)CN2C(=O)C(NC(=O)CC2O[C@H](CNC(=O)COc3ccc(C4CCN(C5=Nn6c(nnc6C(F)(F)F)CC5)CC4)cc3)[C@@H](O)[C@H]2O)C(C)(C)C)cc1 (stereo partly drawn) [Compound 7, 1-(2-(2-((3R,4S,5R)-3,4-dihydroxy-5-((2-(4-(1-(3-(trifluoromethyl)-7,8-dihydro-[1,2,4]triazolo[4,3-b]pyridazin-6-yl)piperidin-4-yl)phenoxy)acetamido)methyl)tetrahydrofuran-2-yl)acetamido)-3,3-dimethylbutanoyl)-4-hydroxy-N-(4-(4-methylthiazol-5-yl)benzyl)pyrrolidine-2-carboxamide] |  | − (<80% : −) | − (>80%; −) | − (>80%; −) | − (>80%; −)
9 | Cc1ncsc1-c1ccc(CNC(=O)[C@@H]2C[C@H](O)CN2C(=O)[C@@H](NC(=O)CCCN2CCC(C#Cc3ccc(C4CCN(C5=Nn6c(nnc6C(F)(F)F)CC5)CC4)cc3)CC2)C(C)(C)C)cc1 [Compound 13, (2S,4S)-1-((S)-3,3-dimethyl-2-(4-(4-((4-(1-(3-(trifluoromethyl)-7,8-dihydro-[1,2,4]triazolo[4,3-b]pyridazin-6-yl)piperidin-4-yl)phenyl)ethynyl)piperidin-1-yl)butanamido)butanoyl)-4-hydroxy-N-(4-(4-methylthiazol-5-yl)benzyl)pyrrolidine-2-carboxamide] | +++ (<40% : +++) | +++ (<40% : +++) |  |  | 
10 | Cc1ncsc1-c1ccc(CNC(=O)[C@@H]2C[C@H](O)CN2C(=O)[C@@H](NC(=O)CCOCCOCCN2CCN(c3ccc(C#Cc4ccc(C5CCN(C6=Nn7c(nnc7C(F)(F)F)CC6)CC5)cc4)cn3)CC2)C(C)(C)C)cc1 [Compound 4, (2S,4S)-1-((S)-3,3-dimethyl-2-(3-(2-(2-(4-(5-((4-(1-(3-(trifluoromethyl)-7,8-dihydro-[1,2,4]triazolo[4,3-b]pyridazin-6-yl)piperidin-4-yl)phenyl)ethynyl)pyridin-2-yl)piperazin-1-yl)ethoxy)ethoxy)propanamido)butanoyl)-4-hydroxy-N-(4-(4-methylthiazol-5-yl)benzyl)pyrrolidine-2-carboxamide] |  | + (60-80% : +) |  |  | 
11 | Cc1ncsc1-c1ccc(CNC(=O)[C@@H]2C[C@H](O)CN2C(=O)[C@@H](NC(=O)COCCCCOc2ccc(C3CCN(C4=Nn5c(nnc5-c5ccc(C(F)(F)F)cc5)CC4)CC3)cc2)C(C)(C)C)cc1 [Compound 8, (2S,4S)-1-((S)-3,3-dimethyl-2-(2-(4-(4-(1-(3-(4-(trifluoromethyl)phenyl)-7,8-dihydro-[1,2,4]triazolo[4,3-b]pyridazin-6-yl)piperidin-4-yl)phenoxy)butoxy)acetamido)butanoyl)-4-hydroxy-N-(4-(4-methylthiazol-5-yl)benzyl)pyrrolidine-2-carboxamide] |  | +++ (<40% : +++) | − (>80%; −) | + (60-80%: +) | +++ (<40%: +++)
